Source: the Deep4Chem optical property database
Values joined by “and” are separate entries in the source; they are usually repeats but may differ in a detail not shown here. Equal values may be shown once.

Experiment: solvent given as SMILES

F[B-]1(F)n2c(-c3ccccc3)cc(-c3ccccc3)c2N=C2C(c3ccccc3)=CC(c3ccccc3)=[N+]21
emission maximum (in CC#N): 673 nm
emission maximum (in ClC(Cl)Cl): 672 nm

c1ccc(N2N=C(c3c4ccccc4cc4ccccc34)CC2c2ccc3ccc4cccc5ccc2c3c45)cc1 (stereo not given)
emission maximum (in ClCCl): 509 nm

COc1ccc(C#Cc2cc3ccccc3oc2=O)cc1
emission maximum (in CC#N): 456 nm

CC(C)(C)NC(=O)c1ccc2ccc3cccc4ccc1c2c34
emission maximum (in ClC(Cl)Cl): 382 nm

CCCCCCCCCCCCCCCCCCN1C(=O)c2cccc3c(OCCN(C)C)ccc(c23)C1=O
emission maximum (in CC#N): 514 nm
emission maximum (in CC(C)=O): 507 nm
emission maximum (in CCO): 510 nm
emission maximum (in CCOC(C)=O): 497 nm
emission maximum (in CCOCC): 492 nm
emission maximum (in CN(C)C=O): 516 nm
emission maximum (in ClCCl): 502 nm

CC1(C)c2ccccc2N(c2ccc(-c3nc(C#N)c(C#N)nc3-c3ccc(N4c5ccccc5C(C)(C)c5ccccc54)cc3)cc2)c2ccccc21
emission maximum (in Cc1ccccc1): 620 nm
emission maximum (in c1cc(-c2cccc(-n3c4ccccc4c4ccccc43)c2)cc(-n2c3ccccc3c3ccccc32)c1): 570 nm

COc1ccc(/C=C2\OC(=O)c3ccccc32)cc1
emission maximum (in CC#N): 456.2 nm and 446 nm
emission maximum (in CC(C)=O): 452.49 nm
emission maximum (in CC(C)CO): 451.88 nm
emission maximum (in CC(C)O): 459.77 nm
emission maximum (in CCCO): 460.83 nm
emission maximum (in CCO): 459.35 nm
emission maximum (in CCOC(C)=O): 438.6 nm
emission maximum (in CCOCC): 434.03 nm
emission maximum (in CO): 459.35 nm

CCCCCCCCCCCCN1C(=O)c2c(c3ccc4cc(-c5ccc(C)cc5)c(OC)cc4c3c3c2ccc2cc(-c4ccc(C)cc4)c(OC)cc23)C1=O
emission maximum (in ClCCl): 529 nm

Nc1ccc2c(c1)C(=O)c1ccccc1-2
emission maximum (in C1CCCCC1): 569 nm
emission maximum (in c1ccccc1): 622 nm

N[C@@H](Cn1nnc2cc(-c3ccc4ccccc4c3)ccc21)C(=O)O
emission maximum (in CO): 417 nm

COC(=O)c1ccc(C2=C(/C=C/c3ccc(OC)cc3)O[B-](F)(F)[O+]=C2/C=C/c2ccc(OC)cc2)cc1
emission maximum (in ClCCl): 557 nm

CC1(C)C(/C=C/C=C/C=C/C=C2/N(CCCCS(=O)(=O)[O-])c3ccc4ccccc4c3C2(C)C)=[N+](CCCCS(=O)(=O)[O-])c2ccc3ccccc3c21
emission maximum (in CO): 817 nm

O=c1oc2ccccc2c2c1c(=O)oc1cc(O)ccc12
emission maximum (in ClCCl): 455 nm

F[Si-](F)(c1ccccc1)(c1c2ccccc2cc2ccccc12)c1c2ccccc2cc2ccccc12
emission maximum (in C1CCOC1): 395 nm

c1cc2c([nH]c3c4[nH]c5sccc5c4c4nsnc4c23)s1
emission maximum (in C1CCOC1): 511 nm
emission maximum (in CCOC(C)=O): 510 nm
emission maximum (in CN(C)C=O): 547 nm
emission maximum (in Cc1ccccc1): 496 nm
emission maximum (in ClCCl): 533 nm

O=C(Nc1ccccc1[N+](=O)[O-])c1ccc2oc(-c3cc4ccccc4oc3=O)nc2c1
emission maximum (in ClCCl): 443 nm

Cc1c2c(c(C)c3ccccc13)C1=CC3Nc4ccccc4NC3C=C12 (stereo not given)
emission maximum (in ClC(Cl)Cl): 502 nm

COc1ccc(C2=C3C(C)=CC(C=Cc4ccc(C(=O)OC5C[C@H]6CCC5(C)C6(C)C)cc4)=[N+]3[B-](F)(F)n3c(C)cc(C)c32)cc1 (stereo not given in full)
emission maximum (in Cc1ccccc1): 627 nm

CC[N+]1(CC)CN2C(=N1)C(C(=O)O)=Cc1c(OC)ccc(OC)c12
emission maximum (in O): 515 nm

CN1/C(=C/C=C/C2=[N+](CCCCCC(=O)O)c3ccc(S(=O)(=O)[O-])cc3C2(C)C)C(C)(C)c2cc(S(=O)(=O)[O-])ccc21
emission maximum (in O): 562 nm

CCOC(=O)c1c2c3c(ccc(Cl)c3c3cc4ccccc4cc13)N(C)C2=O
emission maximum (in CC#N): 414 nm

Cc1ccc(-n2c(-c3ccccc3[N-]S(=O)(=O)c3ccc(C)cc3)[nH+]c3c4ccccc4c4ccccc4c32)cc1
emission maximum (in Cc1ccccc1): 506 nm

CCOC(=O)CCCn1c(C(=O)OC)c(C)c2c(=O)n3c(cc21)C(CC)=C(C)C3=O
emission maximum (in C1CCCCC1): 434 nm
emission maximum (in CO): 499 nm
emission maximum (in CS(C)=O): 481 nm
emission maximum (in ClC(Cl)Cl): 456 nm
emission maximum (in c1ccccc1): 446 nm

CCCCN1c2ccc(/C=C/c3cc(=O)oc4cc(C)ccc34)cc2Sc2cc(/C=C/c3cc(=O)oc4cc(C)ccc34)ccc21
emission maximum (in ClC(Cl)Cl): 620 nm

CC(C)Nc1cc2sc3cc(NC(C)C)c(F)cc3c(=O)c2cc1F
emission maximum (in CCO): 446 nm
